# Results taken from patent US7033578B2, “Antimycotic nail varnish composition” (Polichem S.A., priority 2000, dated 2006).
# Tested on: Tricophytes Mentagrophytes
# Assay: Inhibition of growth of the onychomycosis pathogen on standard plates (Sabourand Dex., 30° C.)
# Type: cell-based
# Conditions: ciclopirox 8%, hydroxypropylchitosan 1%; Sabourand Dex. at 30° C.; 10, 20 and 30 μl applied
# Method: Inhibition of the pathogen responsible for onychomycosis in humans was tested in accordance with standard procedures on standard plates. Comparison of the antimycotic effect of ciclopirox (8%) alone and, hydroxypropychitosan (1%) alone with the combination of these two compounds (8 and 1%, respectively) with respect to the growth of Tricophytes Mentagrophytes on Sabourand Dex. at 30° C. gave the following results (amounts applied in each case 10, 20 and 30 μl): […]
smiles,measurement,value
Cc1cc(C2CCCCC2)n(O)c(=O)c1 [ciclopirox],antimycotic effect: inhibition of growth of Tricophytes Mentagrophytes,good inhibition
